Measurements: ChEMBL document CHEMBL1127983, “The synthesis and evaluation of peptidyl aspartyl aldehydes as inhibitors of ice” (Bioorg Med Chem Lett, 1994)
Square brackets hold non-standard residues; d marks the D form. Peptide text beside a SMILES is read from it. βAla = NCCC(=O)O

Target: T1, Caspase-1 (Homo sapiens, UniProt P29466)
T1 sequence (P29466 whole entry): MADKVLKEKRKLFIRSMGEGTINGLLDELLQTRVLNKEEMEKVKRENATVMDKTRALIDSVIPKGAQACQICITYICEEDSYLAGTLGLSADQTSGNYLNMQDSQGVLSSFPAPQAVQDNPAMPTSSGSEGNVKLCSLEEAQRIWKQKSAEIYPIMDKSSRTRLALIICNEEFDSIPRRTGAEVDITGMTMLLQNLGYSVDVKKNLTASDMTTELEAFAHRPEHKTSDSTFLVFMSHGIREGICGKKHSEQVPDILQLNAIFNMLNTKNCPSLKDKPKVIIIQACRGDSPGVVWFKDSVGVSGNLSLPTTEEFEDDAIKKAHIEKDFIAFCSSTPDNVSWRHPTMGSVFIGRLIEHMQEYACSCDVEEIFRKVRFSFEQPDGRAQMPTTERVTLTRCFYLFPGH
Assay: Binding affinity towards IL-1 beta converting enzyme (ICE)

| Compound | Ki [nM] |
| --- | --- |
| CC(=O)N[C@@H](Cc1ccc(O)cc1)C(=O)N[C@H](C(=O)N[C@@H](C)C(=O)N[C@H](C=O)CC(=O)O)C(C)C | 6 |
| CC(=O)N[C@@H](Cc1cc(I)c(O)c(I)c1)C(=O)N[C@H](C(=O)N[C@@H](C)C(=O)N[C@H](C=O)CC(=O)O)C(C)C | 7.5 |
| CC(C)[C@H](NC(=O)CC(Cl)Cl)C(=O)N[C@@H](C)C(=O)N[C@H](C=O)CC(=O)O | 28 |
| CC(=O)N[C@@H](Cc1ccc(O)cc1)C(=O)N[C@H](C(=O)N[C@@H](C)C(=O)N(C)[C@H](C=O)CC(=O)O)C(C)C | > 20000 |
| CC(=O)N[C@@H](Cc1ccc(O)cc1)C(=O)N(C)[C@H](C(=O)N[C@@H](C)C(=O)N[C@H](C=O)CC(=O)O)C(C)C | 50000 |
| CC(=O)N(C)[C@@H](Cc1ccc(O)cc1)C(=O)N[C@H](C(=O)N[C@@H](C)C(=O)N[C@H](C=O)CC(=O)O)C(C)C | 120 |
| CC(=O)N[C@@H](Cc1ccc(O)cc1)C(=O)N[C@H](C(=O)N(C)[C@@H](C)C(=O)N[C@H](C=O)CC(=O)O)C(C)C | 59 |
| CC(=O)N[C@@H](Cc1ccc(O)cc1)C(=O)N[C@H](C(=O)N[C@@H](C)C(=O)N[C@@H]1COC(=O)C1)C(C)C | > 20000 |
| CC(=O)N[C@@H](Cc1ccc(O)cc1)C(=O)N[C@H](C(=O)N[C@@H](C)C(=O)N[C@H](/C=N\NC(N)=O)CC(=O)O)C(C)C | 500 |
| CC(=O)N[C@@H](Cc1ccc(O)cc1)C(=O)N[C@H](C(=O)N[C@@H](C)C(=O)N[C@@H]1CNC(=O)C1)C(C)C | > 20000 |
| CC(=O)N[C@@H](C)C(=O)N[C@H](C=O)CC(=O)O (Ac-Ala-Asp-aldehyde) | > 20000 |
| CC(=O)N[C@@H](Cc1ccccc1)C(=O)N[C@H](C(=O)N[C@@H](C)C(=O)N[C@H](C=O)CC(=O)O)C(C)C (Ac-FVAD-aldehyde) | 42 |
| CC(=O)N[C@@H](Cc1ccc(O)cc1)C(=O)N[C@@H](C)C(=O)N[C@H](C=O)CC(=O)O (Ac-Tyr-Ala-Asp-aldehyde) | 2100 |
| CC(=O)N[C@@H](Cc1ccc(O)cc1)C(=O)N[C@H](C=O)CC(=O)O (Ac-Tyr-Asp-aldehyde) | > 20000 |
| CC(=O)N[C@@H](Cc1ccc(O)cc1)C(=O)N[C@H](C(=O)N[C@H](C=O)CC(=O)O)C(C)C (Ac-Tyr-Val-Asp-aldehyde) | 2400 |
| CC(=O)N[C@H](C(=O)N[C@@H](C)C(=O)N[C@H](C=O)CC(=O)O)C(C)C (Ac-Val-Ala-Asp-aldehyde) | 1700 |
| CC(=O)N[C@@H](Cc1ccc(O)cc1)C(=O)N[C@H](C(=O)N[C@@H](C)C(=O)NCCC(=O)O)C(C)C (Ac-YVA[βAla]-OH) | > 20000 |
